# Measured values: US5556744A, “Methods and compositions for diagnosing and treating certain HIV infected patients” (The Trustees of the University of Pennsylvania, priority 1994, dated 1996)
# Test system: maternal HIV+ sera (antibodies)
# Test: RIA / ELISA binding of maternal HIV+ sera to gp120 and gp41 peptides (Example 3)
# Set-up: species or system human
# How it was run: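 Peptides were coated at 10 μg/ml in carbonate buffer pH 9.6 and blocked with 1% BSA. Sera at 1:50 and 1:500 were incubated overnight at 4°C and detected with ¹²⁵I anti-human IgG (RIA) or HRP/TMB at OD450 (ELISA). Specific binding was taken as peptide minus no-peptide wells, scored as a ratio to normal human serum.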
sequence,measurement,setting,value
PQEVVLVNVTGENFNM [Peptide 96],Binding of maternal sera to peptide (in words),Example 3,No binding
same,Binding of maternal HIV+ serum to peptide (sera/NHS ratio),"Serum No. 1, Non-Transmission Group","- (specific OD450 or cpm of sera sample binding to peptide divided by the specific OD450 or cpm of NHS sample binding to peptide, which value is less than 2)"
same,Binding of maternal HIV+ serum to peptide (sera/NHS ratio),"Serum No. 2, Non-Transmission Group","- (specific OD450 or cpm of sera sample binding to peptide divided by the specific OD450 or cpm of NHS sample binding to peptide, which value is less than 2)"
same,Binding of maternal HIV+ serum to peptide (sera/NHS ratio),"Serum No. 3, Non-Transmission Group","- (specific OD450 or cpm of sera sample binding to peptide divided by the specific OD450 or cpm of NHS sample binding to peptide, which value is less than 2)"
same,Binding of maternal HIV+ serum to peptide (sera/NHS ratio),"Serum No. 4, Transmission Group","- (specific OD450 or cpm of sera sample binding to peptide divided by the specific OD450 or cpm of NHS sample binding to peptide, which value is less than 2)"
same,Binding of maternal HIV+ serum to peptide (sera/NHS ratio),"Serum No. 5, Transmission Group","- (specific OD450 or cpm of sera sample binding to peptide divided by the specific OD450 or cpm of NHS sample binding to peptide, which value is less than 2)"
same,Binding of maternal HIV+ serum to peptide (sera/NHS ratio),"Serum No. 6, Non-Transmission Group","- (specific OD450 or cpm of sera sample binding to peptide divided by the specific OD450 or cpm of NHS sample binding to peptide, which value is less than 2)"
same,Binding of maternal HIV+ serum to peptide (sera/NHS ratio),"Serum No. 7, Non-Transmission Group","- (specific OD450 or cpm of sera sample binding to peptide divided by the specific OD450 or cpm of NHS sample binding to peptide, which value is less than 2)"
same,Binding of maternal HIV+ serum to peptide (sera/NHS ratio),"Serum No. 8, Non-Transmission Group","- (specific OD450 or cpm of sera sample binding to peptide divided by the specific OD450 or cpm of NHS sample binding to peptide, which value is less than 2)"
same,Binding of maternal HIV+ serum to peptide (sera/NHS ratio),"Serum No. 9, Non-Transmission Group","- (specific OD450 or cpm of sera sample binding to peptide divided by the specific OD450 or cpm of NHS sample binding to peptide, which value is less than 2)"
same,Binding of maternal HIV+ serum to peptide (sera/NHS ratio),"Serum No. 10, Transmission Group","- (specific OD450 or cpm of sera sample binding to peptide divided by the specific OD450 or cpm of NHS sample binding to peptide, which value is less than 2)"
same,Binding of maternal HIV+ serum to peptide (sera/NHS ratio),"Serum No. 11, Non-Transmission Group","- (specific OD450 or cpm of sera sample binding to peptide divided by the specific OD450 or cpm of NHS sample binding to peptide, which value is less than 2)"
same,Binding of maternal HIV+ serum to peptide (sera/NHS ratio),"Serum No. 12, Non-Transmission Group","- (specific OD450 or cpm of sera sample binding to peptide divided by the specific OD450 or cpm of NHS sample binding to peptide, which value is less than 2)"
same,Binding of maternal HIV+ serum to peptide (sera/NHS ratio),"Serum No. 13, Transmission Group","- (specific OD450 or cpm of sera sample binding to peptide divided by the specific OD450 or cpm of NHS sample binding to peptide, which value is less than 2)"
same,Binding of maternal HIV+ serum to peptide (sera/NHS ratio),"Serum No. 14, Transmission Group","- (specific OD450 or cpm of sera sample binding to peptide divided by the specific OD450 or cpm of NHS sample binding to peptide, which value is less than 2)"
same,Binding of maternal HIV+ serum to peptide (sera/NHS ratio),"Serum No. 15, Transmission Group","- (specific OD450 or cpm of sera sample binding to peptide divided by the specific OD450 or cpm of NHS sample binding to peptide, which value is less than 2)"
same,Binding of maternal HIV+ serum to peptide (sera/NHS ratio),"Serum No. 16, Non-Transmission Group","- (specific OD450 or cpm of sera sample binding to peptide divided by the specific OD450 or cpm of NHS sample binding to peptide, which value is less than 2)"
same,Binding of maternal HIV+ serum to peptide (sera/NHS ratio),"Serum No. 17, Non-Transmission Group","- (specific OD450 or cpm of sera sample binding to peptide divided by the specific OD450 or cpm of NHS sample binding to peptide, which value is less than 2)"
same,Binding of maternal HIV+ serum to peptide (sera/NHS ratio),"Serum No. 18, Non-Transmission Group","- (specific OD450 or cpm of sera sample binding to peptide divided by the specific OD450 or cpm of NHS sample binding to peptide, which value is less than 2)"
same,Binding of maternal HIV+ serum to peptide (sera/NHS ratio),"Serum No. 19, Transmission Group","- (specific OD450 or cpm of sera sample binding to peptide divided by the specific OD450 or cpm of NHS sample binding to peptide, which value is less than 2)"
same,Binding of maternal HIV+ serum to peptide (sera/NHS ratio),"Serum No. 20, Non-Transmission Group","- (specific OD450 or cpm of sera sample binding to peptide divided by the specific OD450 or cpm of NHS sample binding to peptide, which value is less than 2)"
